Experiment [1] deals with cerebellar granule neurons (CGNs). Nature of the experiment: serum deprivation/KCl reduction-induced degeneration. Type of experiment: cell-based, mouse. The settings on record: inhibitor 5 μM; 5 mM KCl, 24 hours. Here is the method: Kinase inhibitors (inhibitors of GSK3, JNK, EGFR, p38, and CaMKK) were tested for their capacity to protect cultured cerebellar granule neurons (CGNs) following serum deprivation/KCl reduction. Briefly, CGNs isolated from P7 mouse brain were cultured on PDL- and laminin-coated 96-well tissue culture dishes in medium containing serum and potassium (Basal Medium Eagles including 29 mM KCl and 10% FBS) at 37° C. After 24 hours in culture, cells were switched to “deprivation” medium (Basal Medium Eagles including 5 mM KCl), alone or in combination with various small molecule inhibitors as shown in Table 8. After a further 24 hours in culture, the neurons were fixed with 4% paraformaldehyde and stained with a neuronal marker (anti-class III β-Tubulin, Covance). Image acquisition was performed using the ImageXpress automated imaging system (Molecular Devices).

The test system of experiment [2] is DRGs. The experiment in a line: anti-NGF antibody (NGF withdrawal) screen for inhibitors of neuron or axon degeneration. The experiment is classed as cell-based, mouse. The note with it: inhibitor 100 μM or 10 μM added 1 hour before 25 μg/ml anti-NGF antibodies; 20 hours; actin staining. Here is the method:
The anti-NGF antibody model described above in Example 1 was used in a screen for inhibitors of neuron or axon degeneration. A library of more than 400 small molecules (Tocris Bioscience) was tested to see which, if any, modulate degeneration observed in the presence of anti-NGF antibodies.
Mouse E13.5 embryos were dissected and placed into L15 medium (Invitrogen). The spinal cord was dissected out from the embryos with DRGs attached. The spinal cords with DRGs attached were placed into L15 medium+5% goat serum (Gibco) on ice. The DRGs were removed using a tungsten needle and the remaining spinal cord was disposed of. Eight well slides were filled with N3-F12 solution (23 ml Ham's F12, 1 ml N3 supplement, and 1 ml 1 M glucose) to which was added 25 ng/ml NGF (Roche). (N3 supplement was made by dilution of N3 100× concentrate, which was made by mixing the following ingredients, in the following order: 5.0 ml Hank's buffered saline solution (HBSS; Ca, Mg free; Invitrogen), 1.0 ml bovine serum albumin (10 mg/ml in HBSS=150 μm), 2.0 ml Transferrin (T1147-1G, human, 100 mg/ml in HBSS=1.1 mM), 1.0 ml sodium selenite (S9133-1MG, 0.01 mg/ml in HBSS=58 μM), 0.4 ml putrescine dihydrochloride (P5780-5G, 80 mg/ml in HBSS=500 mM), 0.2 ml progesterone (P8783-5G, 0.125 mg/ml in absolute ethanol=400 μM), 0.02 ml corticosterone (C2505-500MG, 2 mg/ml in absolute ethanol=5.8 mM), 0.1 ml triiodothyonine, sodium salt (T6397-100MG, 0.2 mg/ml in 0.01 N NaOH=300 μM), 0.4 ml insulin (16634-250MG, bovine pancreas, 241 U/mg, 25 mg/ml in 20 mM HCl=4.4 mM), for a total volume of 10.02 ml (can be stored at −20° C.). An N3 supplement stock was made by combining the following: 10 ml Pen/Strep (100×, Gibco), 10 ml glutamine (200 mM, Gibco), 10 ml MEM vitamins (100×, Gibco), 10 ml N3 concentrate (100×, see above), for a total volume of 40 ml. The mixture was filter sterilized using a 0.22 μm filter, and 1-2 ml aliquots were stored at −20° C.).
The DRGs were sectioned into halves, and placed in the center of each well of an 8-chamber slide (BD Biocoat PDL/Laminin coated glass, Becton Dickinson). The DRGs were permitted to attach to the slide at room temperature for 5-10 minutes, followed by an overnight incubation at 37° C. Inhibitors of choice were added at a concentration of 100 μM (top row) or 10 μM (bottom row) 1 hour before adding anti-NGF antibodies. The anti-NGF antibodies were added to the right half of the slide (4 wells) at a concentration of 25 μg/ml. After incubation for 20 hours at 37° C., the slides were fixed with 30% sucrose/8% paraformaldehyde (PFA) by adding 250 μl of the fix solution directly to the 250 μl of culture medium. (To make the 30% sucrose/8% PFA solution, the following ingredients were added to a 600 ml beaker including a stir bar: 250 ml 16% PFA (cat#15710-S, Electron Microscopy Sciences), 50 ml 10×PBS pH 7.4, and 150 g sucrose. The solution was mixed under low heat until dissolved, and then 6-8 drops of 1 M NaOH were added to bring the pH to 7.4. The volume was then brought to 500 ml with water in a graduated cylinder. The solution was mixed well, placed in aliquots, and frozen.) The slides were fixed for 30 minutes, followed by washing once with PBS. All cells were labeled with an actin stain (Alexa-568 conjugated phalloidin; 1:40; Invitrogen), a membrane dye (DiO; 1:200; Invitrogen), and a DNA stain (Hoechst 33258; 1:10,000; Invitrogen) in 0.1% Triton and 1% goat serum for 2 hours at room temperature. […]

For experiment [3], the system named is CaMKK. The settings on record: CaMKK activity after ionomycin stimulation, transfected HeLa cells; published source (footnote e, cell marked c); read-out: Cellular IC50; cited from earlier work.

Broadly, the IC50 is the concentration that gives 50% inhibition.

Turning to `O=C(O)c1ccc2c3c1cccc3c(=O)n1c3ccccc3nc21` [STO-609], in experiment [1], the “protection of cerebellar granule neurons from serum deprivation/KCl reduction” value is reported as “protect cerebellar granule neurons from serum deprivation/KCl reduction”. Further, the “Comments (observations on protection against neurodegeneration upon NGF withdrawal)” value in experiment [2] is listed as “Partial”. In addition, in experiment [3], the IC50 is 3000 nM.

Values taken from patent US20160279190A1, “MODULATION OF AXON DEGENERATION” (GENENTECH, INC., priority 2008, published 2016).
